1 compound from publication PMC12052742, “Engineering a newly identified alcohol dehydrogenase from Sphingobium Sp. for efficient utilization of nicotinamide cofactors biomimetics” (Bioresources and Bioprocessing, 2025) can be followed below.

Common to all, as to assay type: biochemical, Sphingobium sp. SYK-6
One assay has as its system SpADH2 variant H43L. Briefly: Activity of variant in oxidation of syringyl alcohol with p-BANA^+ (Fig. 5), H43L. The note with it: cofactor p-BANA^+, substrate syringyl alcohol. As to the method: (§1) In the first round of screening, saturation mutagenesis was constructed for six positions (W114, T177, G172, G316, A47, and R227). […] Therefore, in the second round of mutagenesis, six additional sites within the 5 Å range of the cofactor ribose (H43, V202, T265, V288, G289, and A290) were selected for saturation mutagenesis screening (Fig. 6c and Fig. S6). Three beneficial mutations were identified. […] Subsequently, combinatorial mutagenesis was performed, resulting in 11 double variants and 3 triple variants.
(§2) Fig. 5 Relative activity of SpADH2 and its variants in oxidation of syringyl alcohol when utilizing p-BANA^+ as cofactor
(§3) In preliminary screening by spectrophotometric analysis, PBS (pH 7.5) buffer (50 µL) in a 96-well plate was pre-warmed at 30°C for 15 min, and a final concentration of 5 mM p-BANA^+ and 1 mM substrate syringyl alcohol were added, and 50 µL of crude enzyme were add to each well to start the reaction, with WT as control. The reaction mixture was incubated at 30°C for 1 h, followed by addition of fluorescent probes in a final concentration of 0.2 mM, and was subjected to determination under 537 nm as described above.

The next assay relates to SpADH2 variant A47S. As to the kind of experiment: Activity of variant in oxidation of syringyl alcohol with p-BANA^+ (Fig. 5), A47S. The note with it: cofactor p-BANA^+, substrate syringyl alcohol. As to the method: as §1, §2, §3
Assay [1] has as its system SpADH2 variant H43L/A290I. Briefly: Cofactor kinetic assay, H43L/A290I. As to the method:
Specific activity of SpADH2 in substrate spectrum study was measured spectrophotometrically. PBS (pH 7.5) buffer was pre-heated at 30°C for 15 min. For NAD^+, 0.05 µg SpADH2 was added to the PBS buffer (100 µL), and a final concentration of 2 mM NAD^+ was added. For tsNCBs cofactor p-BANA^+, 5 µg SpADH2 and a final concentration of 7.5 mM p-BANA^+ was added. The mixture was carried out in a 96-well microplate, and a final concentration of 5 mM substrate was added to start the reaction. The microplate was incubated in 30°C for 1 h. Florescent probes (2-[2-(1,4-dihydro-1-methyl-3-quinolinyl)ethenyl]-1,3,3-trimethyl-3H-indolium) in a final concentration of 0.2 mM (100 µL) was added (Scheme S1), and the microplate was placed in a microplate reader immediately for measurement under 537 nm (Fomin et al. [2016]).
Kinetic analysis of SpADH2 and its variants were carried out following Michaelis-Menten equation or Michaelis-Menten excess substrate inhibition equation. For of the substrate kinetic assays, concentrations of cofactors were fixed at 5 mM for NAD^+ and 7.5 mM for p-BANA^+. For cofactor kinetic assays, the concentration of 1a was fixed at 5 mM.
Specific activity was determined spectrophotometrically as above except that gradient 1a (0−20 mM) or cofactor (0−35 mM) concentrations were applied.
Cofactor specificity ratio (CSR) represents the ratio of catalytic efficiency of p-BANA^+ to NAD^+ for each enzyme, and relative specificity (RS) stands for the CSR ratio of variants to WT (King et al. [2020]).

For another assay, the system named is SpADH2. As to the kind of experiment: Cofactor spectrum of syringyl alcohol oxidation (HPLC specific activity), WT. As to the method:
Fig. 2 Cofactor spectrum of syringyl alcohol oxidation catalyzed by SpADH2. The darkness of the background color for each cofactor stands for the activity of SpADH2 utilizing various cofactors. (a) NAD(P) ^+ and NMN^+ are shown in purple background. (b) tsNCBs are shown in cyan background. The evaluation of cofactor spectrum of SpADH2 was carried out under following conditions: 50 mM PBS buffer (pH 7.5) and 30℃, with 1a (5 mM) as substrate and different cofactors (7.5 mM) as cofactor. For NAD(P)^+ and NMN^+, 0.05 µg SpADH2 was added, and for tsNCBs, 5 µg SpADH2 was added. The results were analyzed by HPLC after 1 h reaction
Specific activity of SpADH2 in cofactor spectrum study was determined by HPLC analysis. PBS (pH 7.5) buffer was pre-heated at 30°C for 15 min. For NAD(P)^+ and NMN^+, 0.05 µg SpADH2 was added to PBS buffer (100 µL). For tsNCBs, 5 µg SpADH2 was added. A final concentration of 7.5 mM cofactor was added to the reaction mixture. Finally, a final concentration of 5 mM substrate was added to start the reaction. The reactions were conducted at 30°C.
One unit of enzyme activity is defined as the amount of enzyme required to form 1 µmol 1b per minute at pH 7.5 and 30°C. Same reaction without cofactor was used as a blank control.

Molecules are shown by their SMILES.

In the case of `NC(=O)c1ccc[n+](Cc2ccc(C(=O)O)cc2)c1` [p-BANA^+, para-3-carbamoyl-1-(4-carboxybenzyl)pyridin-1-ium], the “fold increase in activity vs WT” value in the assay with SpADH2 variant H43L amounted to 2 fold. For the same compound, the “fold higher activity than WT” value in the assay on SpADH2 variant A47S stood at 1.8 fold. Besides, the kcat in assay [1] (cofactor (= label) varied, 1a fixed at 5 mM) is 8.7 ± 1.3 min^− 1. For the same compound, the Michaelis constant (Km) in assay [1] (cofactor (= label) varied, 1a fixed at 5 mM, pH 7.5, 30°C) worked out at 13 ± 2.7 mM. In assay [1] (cofactor (= label) varied, 1a fixed at 5 mM, read-out: Ki (cofactor inhibition)), the Ki was 15 ± 3.5 mM. Moreover, in assay [1] (cofactor kinetics), the “Cofactor specificity ratio (catalytic efficiency of p-BANA^+ to NAD^+)” value is given as 1.94×10^-2 and the “Relative specificity (CSR ratio of variant to WT)” value is on record as 509. Further, in the assay with SpADH2 (1a 5 mM, cofactor 7.5 mM, pH 7.5, 30℃, 5 µg SpADH2, 1 h), the “activity of SpADH2 with the tsNCB as cofactor” value was 11.55 U/g. Besides, the “fold increasement of activity compared with preliminary assay” value with SpADH2 (optimized conditions vs preliminary assay) was determined as 7.1 fold.
